Experimental data as given in patent publication US20250313563A1, “GLYCOGEN SYNTHASE KINASE 3 INHIBITORS AND USES THEREOF” (The Broad Institute, Inc., priority 2022, published 2025).
Read-outs that look alike come from different tables or passages of the source.

Assays:
[1] = biological target: GSK3b (GST-full length GSK3b) (Homo sapiens (Human), UniProt P49841); experiment: GSK3b TR-FRET kinase assay; assay type: biochemical
Method in brief: (§1)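 In this time-resolved FRET format, kinase reactions contained 200 nM biotinylated, S645-phosphorylated glycogen synthase 631-650 peptide and either isoform-specific ATP (2 μM GSK3b, 4 μM GSK3α) or 1 mM ATP. They were quenched with EDTA after 100 min at ambient temperature. Inhibition curves gave IC50 values.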

[2] = biological target: GSK3α (GST-full length GSK3α) (Homo sapiens (Human), UniProt P49840); experiment: GSK3α TR-FRET kinase assay; assay type: biochemical
Sequence of GSK3α (GST-full length GSK3α) (P49840 whole entry): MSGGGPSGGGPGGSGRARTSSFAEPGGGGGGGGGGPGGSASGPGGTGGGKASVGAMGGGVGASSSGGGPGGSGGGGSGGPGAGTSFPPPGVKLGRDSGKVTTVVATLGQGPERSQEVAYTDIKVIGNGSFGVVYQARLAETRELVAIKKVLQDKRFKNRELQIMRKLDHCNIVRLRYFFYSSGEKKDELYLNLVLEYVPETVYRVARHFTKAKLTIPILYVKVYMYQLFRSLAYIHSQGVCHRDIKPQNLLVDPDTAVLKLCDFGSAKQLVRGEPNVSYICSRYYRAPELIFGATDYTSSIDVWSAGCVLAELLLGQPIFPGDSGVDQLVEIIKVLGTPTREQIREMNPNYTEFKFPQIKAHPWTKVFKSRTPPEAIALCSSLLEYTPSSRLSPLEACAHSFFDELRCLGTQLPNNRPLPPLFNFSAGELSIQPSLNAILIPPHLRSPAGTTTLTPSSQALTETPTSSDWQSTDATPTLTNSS
Method in brief: as §1

[3] = 1 nM GSK3b, 2 μM ATP, 30 minute preincubation, Table 16, read-out: GSK3-B TR-FRET BIOCHEMICAL (TR-FRET)
[4] = 1 nM GSK3α, 4 μM ATP, 30 minute preincubation, Table 16, read-out: GSK3-A TR-FRET BIOCHEMICAL (TR-FRET)
[5] = read-out: GSK3-B (TR-FRET 1 mM ATP), GMean, IC50, 1 mM ATP, geometric mean
[6] = read-out: GSK3-A (TR-FRET 1 mM ATP), GMean, IC50, 1 mM ATP, geometric mean
[7] = 1 nM GSK3b, 2 μM ATP, 30 minute preincubation, Table 16, read-out: GSK3-B TR-FRET BIOCHEMICAL (TR-FRET), IC50
[8] = 1 nM GSK3α, 4 μM ATP, 30 minute preincubation, Table 16, read-out: GSK3-A TR-FRET BIOCHEMICAL (TR-FRET), IC50
[9] = 1 nM GSK3b, 2 μM ATP, 30 minute preincubation, read-out: GSK3-B TR-FRET BIOCHEMICAL (TR-FRET), IC50
[10] = 1 nM GSK3α, 4 μM ATP, 30 minute preincubation, read-out: GSK3-A TR-FRET BIOCHEMICAL (TR-FRET), IC50
[11] = GSK3-B (TR-FRET 1 mM ATP), GMean, IC50, 1 mM ATP, geometric mean
[12] = GSK3-A (TR-FRET 1 mM ATP), GMean, IC50, 1 mM ATP, geometric mean

Sequence of GSK3b (GST-full length GSK3b) (P49841 whole entry, canonical isoform): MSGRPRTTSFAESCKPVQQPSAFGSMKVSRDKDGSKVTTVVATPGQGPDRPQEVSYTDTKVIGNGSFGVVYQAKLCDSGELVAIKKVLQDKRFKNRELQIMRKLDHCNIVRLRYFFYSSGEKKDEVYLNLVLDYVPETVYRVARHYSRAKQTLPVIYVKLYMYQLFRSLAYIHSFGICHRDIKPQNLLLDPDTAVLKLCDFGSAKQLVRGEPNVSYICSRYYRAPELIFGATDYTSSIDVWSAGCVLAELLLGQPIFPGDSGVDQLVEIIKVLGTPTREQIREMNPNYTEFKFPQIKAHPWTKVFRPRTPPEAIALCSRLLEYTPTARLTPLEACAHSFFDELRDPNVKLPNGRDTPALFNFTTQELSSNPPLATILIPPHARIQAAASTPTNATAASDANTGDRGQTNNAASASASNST

Row | SMILES | IC50 [1, 3] [nM] | IC50 [2, 4] [nM] | IC50 [1, 9] [nM] | IC50 [2, 10] [nM] | further results
1 | CC[C@]1(c2cccc(-c3ccncc3F)c2)C2=C(CC(C)(C)CC2=O)Nc2n[nH]cc21 [Compound 943519] | 1000 to 5000 | 100 to 1000 |  |  | 
2 | CCC1(c2cccc(-c3cnc(C)n3C)c2)C2=C(CC(C)(C)CC2=O)Nc2n[nH]cc21 (stereo not drawn) [Compound 943531] | 100 to 1000 | ≤ 100 |  |  | IC50 [1, 5]: > 5000 nM; IC50 [2, 6]: 100 to 1000 nM
3 | CCC1(c2cccc(-c3ncnn3C)c2)C2=C(CC(C)(C)CC2=O)Nc2n[nH]cc21 (stereo not drawn) [Compound 943532] | 100 to 1000 | ≤ 100 |  |  | 
4 | CCC1(c2cccc(-c3cncn3C)c2)C2=C(CC(C)(C)CC2=O)Nc2n[nH]cc21 (stereo not drawn) [Compound 943533] | ≤ 100 | ≤ 100 |  |  | 
5 | CCC1(c2cccc(-c3ccnc4c3CCC4)c2)C2=C(CC(C)(C)CC2=O)Nc2n[nH]cc21 (stereo not drawn) [Compound 943534] | ≤ 100 | ≤ 100 |  |  | 
6 | CCC1(c2cccc(-c3cnc4n3CCCC4)c2)C2=C(CC(C)(C)CC2=O)Nc2n[nH]cc21 (stereo not drawn) [Compound 943535] | ≤ 100 | ≤ 100 |  |  | 
7 | CCC1(c2cccc(N(C)c3cc(C)ccn3)c2)C2=C(CC(C)(C)CC2=O)Nc2n[nH]cc21 (stereo not drawn) [Compound 943537] | 100 to 1000 | ≤ 100 |  |  | 
8 | CCC1(c2cccc(-c3ccncc3CO)c2)C2=C(CC(C)(C)CC2=O)Nc2n[nH]cc21 (stereo not drawn) [Compound 943539] | ≤ 100 | ≤ 100 |  |  | 
9 | CCC1(c2cccc(-c3ccnc(CO)c3)c2)C2=C(CC(C)(C)CC2=O)Nc2n[nH]cc21 (stereo not drawn) [Compound 943540] | 100 to 1000 | ≤ 100 |  |  | 
10 | CCC1(c2cccc(S(=O)(=O)C3CCCCC3)c2)C2=C(CC(C)(C)CC2=O)Nc2n[nH]cc21 (stereo not drawn) [Compound 943541] | ≤ 100 | ≤ 100 |  |  | IC50 [1, 5]: 1000 to 5000 nM; IC50 [2, 6]: 100 to 1000 nM
11 | CC1(C)CC(=O)C2=C(C1)Nc1n[nH]cc1C21CN(S(=O)(=O)Cc2ccccc2)C1 [Compound 943543] | ≤ 100 | ≤ 100 |  |  | 
12 | COCCN1CC2(C1)C1=C(CC(C)(C)CC1=O)Nc1n[nH]cc12 [Compound 943544] |  |  |  |  | IC50 [1, 7]: > 5000 nM; IC50 [2, 8]: > 5000 nM
13 | CC1(C)CC(=O)C2=C(C1)Nc1n[nH]cc1C21CN(CC2CCOCC2)C1 [Compound 943545] |  |  |  |  | IC50 [1, 7]: > 5000 nM; IC50 [2, 8]: > 5000 nM
14 | CC[C@]1(c2cccc(S(=O)(=O)CCOC)c2)C2=C(CC(C)(C)CC2=O)Nc2n[nH]cc21 [Compound 943546] | > 5000 | 1000 to 5000 |  |  | 
15 | CCC1(c2cccc(S(=O)(=O)C3CCCCC3)c2)C2=C(CC(C)(C)CC2=O)Nc2n[nH]cc21 (stereo not drawn) [Compound 943547] | > 5000 | 1000 to 5000 |  |  | 
16 | CC1(C)CC(=O)C2=C(C1)Nc1n[nH]cc1C21CCC(n2cnnc2)CC1 (stereo not drawn) [Compound 943894] | 100 to 1000 | ≤ 100 |  |  | 
17 | Cc1noc(C2CCC3(CC2)C2=C(CC(C)(C)CC2=O)Nc2n[nH]cc23)n1 (stereo not drawn) [Compound 943895] | 100 to 1000 | 100 to 1000 |  |  | 
18 | C[C@H]1C[C@@H]2C[C@]3(C[C@@H]2C1)C1=C(CC(C)(C)CC1=O)Nc1n[nH]cc13 [Compound 943896] |  |  | ≤ 100 | ≤ 100 | 
19 | C[C@@H]1C[C@@H]2C[C@]3(C[C@@H]2C1)C1=C(CC(C)(C)CC1=O)Nc1n[nH]cc13 [Compound 943898] |  |  | ≤ 100 | ≤ 100 | 
20 | CCC1(c2cccc(-c3cnn(C)c3)c2)C2=C(CC(C)(C)NC2=O)Nc2n[nH]cc21 (stereo not drawn) [Compound 943912] |  |  | 1000 to 5000 | ≤ 100 | 
21 | CC[C@]1(c2cccc(-c3ccncc3C(F)(F)F)c2)C2=C(CC(C)(C)CC2=O)Nc2n[nH]cc21 [Compound 943913] | ≤ 100 | ≤ 100 |  |  | IC50 [1, 5]: 100 to 1000 nM; IC50 [2, 6]: ≤ 100 nM
22 | CC1(C)CC(=O)C2=C(C1)Nc1n[nH]cc1C21CN(CC2CCCC2)C1 [Compound 943914] |  |  |  |  | IC50 [1, 7]: > 5000 nM; IC50 [2, 8]: > 5000 nM
23 | CC[C@]1(c2cccc(-c3ccnc(C(F)F)c3)c2)C2=C(CC(C)(C)CC2=O)Nc2n[nH]cc21 [Compound 943919] | 100 to 1000 | ≤ 100 |  |  | 
24 | CC1(C)CC(=O)C2=C(C1)Nc1n[nH]cc1[C@@]21COC2(CN(C(=O)c3ccccc3)C2)C1 [Compound 943955] |  |  | ≤ 100 | ≤ 100 | 
25 | CC1(C)CC(=O)C2=C(C1)Nc1n[nH]cc1C21COC2(CN(C(=O)c3ccccc3)C2)C1 (stereo not drawn) [Compound 943956] |  |  | 1000 to 5000 | 100 to 1000 | 

Row | SMILES | IC50 [1, 3] [nM] | IC50 [2, 4] [nM] | IC50 [1, 9] [nM] | IC50 [2, 10] [nM] | further results
26 | CC1(C)CC(=O)C2=C(C1)Nc1n[nH]cc1C21COC2(CN(C(=O)C3CCCC3)C2)C1 (stereo not drawn) [Compound 943958] |  |  | 1000 to 5000 | 100 to 1000 | 
27 | CC1(C)CC2=C(C(=O)N1)C1(CCN(S(C)(=O)=O)CC1)c1c[nH]nc1N2 [Compound 943959] |  |  | 100 to 1000 | ≤ 100 | 
28 | CC1(C)CC2=C(C(=O)N1)C1(CCN(S(=O)(=O)C3CCCC3)CC1)c1c[nH]nc1N2 [Compound 943960] |  |  | ≤ 100 | ≤ 100 | IC50 [1, 11]: 100 to 1000 nM; IC50 [2, 12]: 100 to 1000 nM
29 | Cn1ccc(S(=O)(=O)N2CCC3(CC2)C2=C(CC(C)(C)NC2=O)Nc2n[nH]cc23)n1 [Compound 943961] | ≤ 100 | ≤ 100 | ≤ 100 | ≤ 100 | IC50 [1, 11]: > 5000 nM; IC50 [2, 12]: 100 to 1000 nM
30 | COc1cccc(S(=O)(=O)N2CCC3(CC2)C2=C(CC(C)(C)CC2=O)Nc2n[nH]cc23)c1 [Compound 943962] | 100 to 1000 | ≤ 100 | 100 to 1000 | ≤ 100 | 
31 | CC1(C)CC2=C(C(=O)N1)C1(CCN(S(=O)(=O)c3ccc(F)cc3)CC1)c1c[nH]nc1N2 [Compound 943963] |  |  | ≤ 100 | ≤ 100 | 
32 | CC[C@@]1(c2cccc(N(C)c3ncccn3)c2)C2=C(CC(C)(C)NC2=O)Nc2n[nH]cc21 [Compound 943964] |  |  | ≤ 100 | ≤ 100 | IC50 [1, 5]: 1000 to 5000 nM; IC50 [2, 6]: 100 to 1000 nM
33 | CC[C@]1(c2cccc(N(C)c3ncccn3)c2)C2=C(CC(C)(C)NC2=O)Nc2[nH]ncc21 [Compound 943965] |  |  | > 5000 | 100 to 1000 | 
34 | CCC1(c2cccc(-c3cc(C)nn3C)c2)C2=C(CC(C)(C)NC2=O)Nc2n[nH]cc21 (stereo not drawn) [Compound 943966] |  |  | 100 to 1000 | ≤ 100 | 
35 | CC[C@]1(c2cccc(-c3cc(C)nn3C)c2)C2=C(CC(C)(C)NC2=O)Nc2n[nH]cc21 [Compound 943967] |  |  | > 5000 | > 5000 | 
36 | CCC1(c2cccc(-c3ccnc(OC(F)(F)F)c3)c2)C2=C(CC(C)(C)CC2=O)Nc2n[nH]cc21 (stereo not drawn) [Compound 943988] | 1000 to 5000 | 100 to 1000 |  |  | 
37 | CCC1(c2cccc(-c3ccncc3C)c2)C2=C(CC(C)(C)CC2=O)Nc2n[nH]cc21 (stereo not drawn) [Compound 943990] | ≤ 100 | ≤ 100 |  |  | IC50 [1, 5]: 100 to 1000 nM; IC50 [2, 6]: ≤ 100 nM
38 | CCC1(c2cccc(-c3ccnc(O)c3)c2)C2=C(CC(C)(C)CC2=O)Nc2n[nH]cc21 (stereo not drawn) [Compound 943992] | 100 to 1000 | ≤ 100 |  |  | 
39 | CCC1(c2cccc(-c3cnnc(C)c3)c2)C2=C(CC(C)(C)CC2=O)Nc2n[nH]cc21 (stereo not drawn) [Compound 943994] | ≤ 100 | ≤ 100 |  |  | IC50 [1, 5]: 1000 to 5000 nM; IC50 [2, 6]: 100 to 1000 nM
40 | CCC1(c2cccc(-c3c(C)nnn3C)c2)C2=C(CC(C)(C)CC2=O)Nc2n[nH]cc21 (stereo not drawn) [Compound 943996] | ≤ 100 | ≤ 100 |  |  | IC50 [1, 5]: 100 to 1000 nM; IC50 [2, 6]: ≤ 100 nM
41 | CCC1(c2cccc(S(=O)(=O)C3COC3)c2)C2=C(CC(C)(C)CC2=O)Nc2n[nH]cc21 (stereo not drawn) [Compound 944017] | ≤ 100 | ≤ 100 |  |  | 
42 | CCC1(c2cccc(S(=O)(=O)C3CCOC3)c2)C2=C(CC(C)(C)CC2=O)Nc2n[nH]cc21 (stereo not drawn) [Compound 944018] | ≤ 100 | ≤ 100 |  |  | 
43 | CCC1(c2cccc(S(=O)(=O)C3CC(F)(F)C3)c2)C2=C(CC(C)(C)CC2=O)Nc2n[nH]cc21 (stereo not drawn) [Compound 944019] | ≤ 100 | ≤ 100 |  |  | 
44 | CCC1(c2cccc(-c3cn[nH]c3)c2)C2=C(CC(C)(C)NC2=O)Nc2n[nH]cc21 (stereo not drawn) [Compound 944022] |  |  | 100 to 1000 | ≤ 100 | 
45 | CCc1cccc(N(C)c2cccc(C3(CC)C4=C(CC(C)(C)CC4=O)Nc4n[nH]cc43)c2)n1 (stereo not drawn) [Compound 944023] | 100 to 1000 | ≤ 100 |  |  | 
46 | CCC1(c2cccc(-c3cnco3)c2)C2=C(CC(C)(C)CC2=O)Nc2n[nH]cc21 (stereo not drawn) [Compound 944025] | 100 to 1000 | ≤ 100 |  |  | 
47 | CCC1(c2cccc(-c3cncn3C(C)C)c2)C2=C(CC(C)(C)CC2=O)Nc2n[nH]cc21 (stereo not drawn) [Compound 944026] | ≤ 100 | ≤ 100 |  |  | 
48 | CCC1(c2cccc(-c3cnn(C)c3C)c2)C2=C(CC(C)(C)NC2=O)Nc2n[nH]c(C)c21 (stereo not drawn) [Compound 944028] |  |  | 100 to 1000 | ≤ 100 | 
49 | CCC1(c2cccc(-c3ccnc(C(C)O)c3)c2)C2=C(CC(C)(C)CC2=O)Nc2n[nH]cc21 (stereo not drawn) [Compound 944029] | 100 to 1000 | ≤ 100 |  |  | 
